Source: ChEMBL document CHEMBL1177723, “Severe acute respiratory syndrome coronavirus papain-like novel protease inhibitors: design, synthesis, protein-ligand X-ray structure and biological evaluation” (J Med Chem, 2010)

Tests used:
[1] = Inhibition of SARS coronavirus papain-like protease expressed in Escherichia coli; set-up: species or system Severe acute respiratory syndrome-related coronavirus
SARS-CoV = test: Antiviral activity against SARS coronavirus infected in african green monkey Vero E6 cells assessed as inhibition of viral replication after 48 hrs by luminescence assay; format: functional, organism-based, Severe acute respiratory syndrome-related coronavirus
[2] = Severe acute respiratory syndrome-related coronavirus, Vero, 48 h, read-out: EC50

SMILES	IC50 [1]	EC50 (SARS-CoV; [2])	EC50 (SARS-CoV; vero)
CC(C)(c1cccc2ccccc12)N1CCC(C(=O)NCc2ccc3c(c2)OCO3)CC1	> 200 µM		
COc1ccccc1CNC(=O)C1CCN([C@H](C)c2cccc3ccccc23)CC1	1.21 µM	11.6 µM	
C[C@@H](c1cccc2ccccc12)N1CCC(C(=O)NCc2ccc3c(c2)OCO3)CC1	0.56 µM	9.1 µM	
O=C(NCc1ccc2c(c1)OCO2)C1CCN(Cc2ccc3ccccc3c2)CC1	100 µM		
O=C(NCc1ccc2c(c1)OCO2)C1CCN(Cc2cccc3ccccc23)CC1	45 µM		
COc1cccc(CNC(=O)C2CCN([C@H](C)c3cccc4ccccc34)CC2)c1	0.34 µM	9.7 µM	
COc1ccc(CNC(=O)C2CCN([C@H](C)c3cccc4ccccc34)CC2)cc1	0.34 µM	10.2 µM	
C[C@H](c1cccc2ccccc12)N1CCC(C(=O)NCc2ccc3c(c2)OCO3)CC1		9.1 µM	
COc1ccc(CNC(=O)C2CCN(Cc3cccc4ccccc34)CC2)cc1	59.2 µM		Not Active
COc1ccccc1CNC(=O)C1CCN(Cc2cccc3ccccc23)CC1	116 µM		
COc1cccc(CNC(=O)C2CCN(Cc3cccc4ccccc34)CC2)c1	30 µM		
COc1cccc(CNC(=O)C2CCN([C@@H](C)c3ccc4ccccc4c3)CC2)c1	5.8 µM	> 25 µM	
COc1cccc(CNC(=O)C2CCN([C@H](C)c3ccc4ccccc4c3)CC2)c1	13.2 µM		
COc1ccccc1CNC(=O)C1CCN([C@H](C)c2ccc3ccccc3c2)CC1	34.8 µM		
COc1ccc(CNC(=O)C2CCN(C(C)c3ccc4ccccc4c3)CC2)cc1 (racemic)	> 100 µM		
